Molecules are shown by their SMILES. Numbered stars: 1 amine (or outer) side, 2 acyl side, 3 side chain; on linkers, the order of the positions; unused ones are H or OH. Square brackets hold non-standard residues; d marks the D form. Peptide text beside a SMILES is read from it. * marks the point of attachment. X5 = O=C([C@H](CCCCNC1C2CC3CC(C2)CC1C3)N[*:1])[*:2]; X3 = CN(C)C(NCCCC[C@H](N[*:1])C(=O)[*:2])=[N+](C)C; X14 = CCCN(CCCC[C@H](N[*:1])C(=O)[*:2])C(C)C; X8 = O=C([C@H](CCCCNC1CC2CCC1C2)N[*:1])[*:2]; Phe(4-CH2NH2) = NCc1ccc(C[C@H](N)C(=O)O)cc1; X19 = CN(CCCC[C@H](N[*:1])C(=O)[*:2])C1CNC1; Lys(Et,iPr) = CCN(CCCC[C@H](N)C(=O)O)C(C)C; Benzoyl(4-tBu) = CC(C)(C)c1ccc(C(=O)*)cc1; Lys(Et2) = CCN(CC)CCCC[C@H](N)C(=O)O; X18 = O=C(Cc1c[nH]c2ccccc12)*; Boc = CC(C)(C)OC(=O)*; Bz = O=C(c1ccccc1)*

As a reminder, the IC50 is the concentration at which inhibition is half-maximal.

Test [1] deals with Chromobox protein homolog 5 (Homo sapiens, UniProt P45973). Nature of the test: Antagonist activity at recombinant human N-terminal His-tagged CBX5 chromodomain (18 to 75 residues) expressed in Escherichia coli Rosetta BL21(DE3)pLysS using ARTKQTARK(Me3)STGGKAPRKQL-K(Biotin)-NH2 measured after 30 mins by AlphaScreen assay. A general note: Bead proximity is the source of the signal in Alpha formats.

For test [2], the target named is T1, Chromobox protein homolog 7 (Homo sapiens, UniProt O95931).
T1 sequence (O95931 whole entry): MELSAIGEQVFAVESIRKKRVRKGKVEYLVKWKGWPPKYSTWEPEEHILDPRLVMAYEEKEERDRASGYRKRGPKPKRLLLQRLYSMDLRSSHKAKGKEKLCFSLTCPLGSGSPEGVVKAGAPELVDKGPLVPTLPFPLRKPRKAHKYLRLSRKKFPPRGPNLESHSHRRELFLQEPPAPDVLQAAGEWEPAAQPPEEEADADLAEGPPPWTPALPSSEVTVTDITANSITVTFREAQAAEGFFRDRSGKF
Nature of the test: Antagonist activity at recombinant human C-terminal His-tagged CBX7 chromodomain (8 to 62 residues) expressed in Escherichia coli Rosetta BL21(DE3)pLysS using biotin-labeled UNC4195 measured after 30 mins by AlphaScreen assay.

For test [3], the target named is T2, Chromobox protein homolog 8 (Homo sapiens, UniProt Q9HC52).
T2 sequence (Q9HC52 whole entry): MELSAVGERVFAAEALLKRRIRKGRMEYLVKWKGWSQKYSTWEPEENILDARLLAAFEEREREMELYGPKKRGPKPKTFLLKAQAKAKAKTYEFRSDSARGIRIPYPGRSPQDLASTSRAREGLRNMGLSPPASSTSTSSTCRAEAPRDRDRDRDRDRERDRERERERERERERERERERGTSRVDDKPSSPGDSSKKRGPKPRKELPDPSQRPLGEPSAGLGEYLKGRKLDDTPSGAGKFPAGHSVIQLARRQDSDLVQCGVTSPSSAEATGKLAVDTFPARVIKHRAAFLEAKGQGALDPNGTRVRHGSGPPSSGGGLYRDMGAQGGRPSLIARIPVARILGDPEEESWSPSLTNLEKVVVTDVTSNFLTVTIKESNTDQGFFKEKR
Nature of the test: Antagonist activity at recombinant human N-terminal His-tagged CBX8 chromodomain (8 to 61 residues) expressed in Escherichia coli Rosetta BL21(DE3)pLysS using biotin-labeled UNC4195 measured after 30 mins by AlphaScreen assay.

Test [4] has as its target T3, E3 SUMO-protein ligase CBX4 (Homo sapiens, UniProt O00257).
T3 sequence (O00257 whole entry): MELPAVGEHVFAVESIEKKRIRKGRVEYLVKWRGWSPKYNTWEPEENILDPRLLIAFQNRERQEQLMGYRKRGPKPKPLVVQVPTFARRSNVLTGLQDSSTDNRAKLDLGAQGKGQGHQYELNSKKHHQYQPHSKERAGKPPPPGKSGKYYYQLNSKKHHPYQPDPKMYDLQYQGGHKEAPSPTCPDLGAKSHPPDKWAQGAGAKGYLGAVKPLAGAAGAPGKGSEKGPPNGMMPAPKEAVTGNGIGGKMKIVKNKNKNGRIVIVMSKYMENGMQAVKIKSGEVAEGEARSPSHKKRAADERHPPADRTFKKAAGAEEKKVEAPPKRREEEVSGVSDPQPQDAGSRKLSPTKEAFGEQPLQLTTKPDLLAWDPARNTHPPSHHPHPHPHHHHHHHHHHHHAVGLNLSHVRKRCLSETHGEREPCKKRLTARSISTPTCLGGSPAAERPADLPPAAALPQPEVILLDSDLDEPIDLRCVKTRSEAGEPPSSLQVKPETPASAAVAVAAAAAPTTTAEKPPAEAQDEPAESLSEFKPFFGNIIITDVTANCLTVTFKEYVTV
Nature of the test: Antagonist activity at recombinant human N-terminal His-tagged CBX4 chromodomain (8 to 65 residues) expressed in Escherichia coli Rosetta BL21(DE3)pLysS using biotin-labeled UNC4195 measured after 30 mins by AlphaScreen assay.

Test [5] addresses T4, Chromodomain Y-like protein 2 (Homo sapiens, UniProt Q8N8U2).
T4 sequence (Q8N8U2 whole entry): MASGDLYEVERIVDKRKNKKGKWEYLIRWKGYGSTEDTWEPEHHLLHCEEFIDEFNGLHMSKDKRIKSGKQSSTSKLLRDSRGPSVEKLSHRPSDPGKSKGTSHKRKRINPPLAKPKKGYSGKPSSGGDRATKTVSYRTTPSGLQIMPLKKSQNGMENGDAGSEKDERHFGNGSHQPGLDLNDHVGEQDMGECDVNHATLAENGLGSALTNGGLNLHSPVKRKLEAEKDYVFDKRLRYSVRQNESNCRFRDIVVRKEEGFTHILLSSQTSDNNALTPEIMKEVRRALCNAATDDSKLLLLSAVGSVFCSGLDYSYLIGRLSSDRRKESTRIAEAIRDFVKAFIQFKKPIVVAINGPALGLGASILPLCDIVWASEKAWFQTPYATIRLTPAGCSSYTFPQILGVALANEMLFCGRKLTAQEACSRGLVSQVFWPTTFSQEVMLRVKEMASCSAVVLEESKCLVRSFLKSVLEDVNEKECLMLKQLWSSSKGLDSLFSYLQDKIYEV
Nature of the test: Antagonist activity at recombinant human C-terminal His-tagged CDYL2 chromodomain (1 to 75 residues) expressed in Escherichia coli Rosetta BL21(DE3)pLysS using biotin-labeled UNC4195 measured after 30 mins by AlphaScreen assay.

Chain of Chromobox protein homolog 5 (P45973 whole entry, the tested form may be a part): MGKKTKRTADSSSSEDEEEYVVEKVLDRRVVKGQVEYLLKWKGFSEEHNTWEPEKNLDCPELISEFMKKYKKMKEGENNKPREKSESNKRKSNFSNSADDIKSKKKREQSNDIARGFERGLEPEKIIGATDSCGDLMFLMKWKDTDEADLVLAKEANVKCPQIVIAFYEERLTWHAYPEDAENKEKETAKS

`COC(=O)[C@H](CO)NC(=O)[C@H](CCCCNC1CC2CCC1C2)NC(=O)[C@H](CC(C)C)NC(=O)[C@H](C)NC(=O)[C@H](Cc1ccccc1)NC(=O)CNC(=O)c1ccccc1` (stereo partly drawn) (Bz-GFAL[X8]S-OMe): the IC50 is greater than 60 µM in test [1]; 51 µM in test [2]; greater than 60 µM in test [3]; greater than 60 µM in test [4]; 5 µM in test [5].

In the case of `COC(=O)[C@H](CO)NC(=O)[C@H](CCCCNC1C2CC3CC(C2)CC1C3)NC(=O)[C@H](CC(C)C)NC(=O)[C@H](C)NC(=O)[C@H](Cc1ccccc1)NC(=O)CNC(=O)c1ccccc1` (stereo partly drawn) (Bz-GFAL[X5]S-OMe), the IC50 in test [1] was greater than 60 µM; in test [2], greater than 60 µM; in test [3], greater than 60 µM; in test [4], greater than 60 µM; in test [5], 14 µM.

On to `COC(=O)[C@H](CO)NC(=O)[C@H](CCCCN(C)C1CNC1)NC(=O)[C@H](CC(C)C)NC(=O)[C@H](C)NC(=O)[C@H](Cc1ccccc1)NC(=O)CNC(=O)c1ccccc1` (Bz-GFAL[X19]S-OMe), for which the IC50 in test [1] is greater than 60 µM; in test [2] it was greater than 60 µM; in test [3], greater than 60 µM; in test [4] it was greater than 60 µM; in test [5], 8.6 µM.

Consider `CCN(CC)CCCC[C@H](NC(=O)[C@H](CC(C)C)NC(=O)[C@H](C)NC(=O)[C@H](Cc1ccccc1)NC(=O)CNC(=O)c1ccccc1)C(=O)N[C@@H](CO)C(=O)OC` (Bz-GFAL[Lys(Et2)]S-OMe), for which the IC50 in test [4] was 46 µM.

Consider `CCN(CC)CCCC[C@H](NC(=O)[C@H](CC(C)C)NC(=O)[C@H](C)NC(=O)[C@H](Cc1ccc(CN)cc1)NC(=O)c1ccc(C(C)(C)C)cc1)C(=O)N[C@@H](CO)C(=O)OC` ({Benzoyl(4-tBu)}-[Phe(4-CH2NH2)]AL[Lys(Et2)]S-OMe), for which the IC50 amounted to 53 µM in test [1], 0.063 µM in test [2], 2.4 µM in test [3] and 0.075 µM in test [5].

Regarding `COC(=O)[C@H](CO)NC(=O)[C@H](CCCCNC(N(C)C)=[N+](C)C)NC(=O)[C@H](CC(C)C)NC(=O)[C@H](C)NC(=O)[C@H](Cc1ccccc1)NC(=O)CNC(=O)c1ccccc1` (Bz-GFAL[X3]S-OMe), the IC50 in test [1], in test [2], in test [3] and in test [4] was greater than 60 µM in each case.

In the case of `CCN(CC)CCCC[C@H](NC(=O)[C@H](CC(C)C)NC(=O)[C@H](C)NC(=O)[C@H](Cc1ccccc1)NC(=O)Cc1c[nH]c2ccccc12)C(=O)N[C@@H](CO)C(=O)OC` (X18-FAL[Lys(Et2)]S-OMe), the IC50 was greater than 60 µM in test [1], 1.7 µM in test [2], 15 µM in test [3] and 0.11 µM in test [5].

Turning to `CCCN(CCCC[C@H](NC(=O)[C@H](CC(C)C)NC(=O)[C@H](C)NC(=O)[C@H](Cc1ccccc1)NC(=O)c1ccc(C(C)(C)C)cc1)C(=O)N[C@@H](CO)C(=O)OC)C(C)C` ({Benzoyl(4-tBu)}-FAL[X14]S-OMe), the IC50 was greater than 60 µM in test [1], 0.032 µM in test [2], 0.062 µM in test [4] and 0.11 µM in test [5].

As to `CCN(CC)CCCC[C@H](NC(=O)[C@H](CC(C)C)NC(=O)[C@H](C)NC(=O)[C@H](Cc1ccc(CNC(=O)OC(C)(C)C)cc1)NC(=O)c1ccc(C(C)(C)C)cc1)C(=O)N[C@@H](CO)C(=O)OC` ({Benzoyl(4-tBu)}-[Phe(4-CH2NH2)](Boc)AL[Lys(Et2)]S-OMe), the IC50 in test [1] came out at 44 µM; in test [2], 0.056 µM; in test [3], 1.7 µM; in test [5], 0.16 µM.

As for `CCN(CCCC[C@H](NC(=O)[C@H](CC(C)C)NC(=O)[C@H](C)NC(=O)[C@H](Cc1ccccc1)NC(=O)c1ccc(C(C)(C)C)cc1)C(=O)N[C@@H](CO)C(=O)OC)C(C)C` ({Benzoyl(4-tBu)}-FAL[Lys(Et,iPr)]S-OMe), the values for the 50% inhibitory concentration (IC50) in test [1] and in test [3] were greater than 60 µM and 1 µM, respectively.

Source of the values: ChEMBL document CHEMBL3856243, “Structure-Activity Relationships and Kinetic Studies of Peptidic Antagonists of CBX Chromodomains” (J Med Chem, 2016).
